The values that follow come from patent publication US6291449A, “Use of 11-phenyl-dibenzazepine compounds to treat diarrhea or scours” (Children's Medical Center Corporation, priority 1998, dated 2001).

Assay [1] deals with basolateral K+ channels. The assay can be described thus: K+ transport/conductance of basolateral membrane in apically permeabilized T84 monolayers. The note with it: for increases in Isc and G in absence of K+: Na+ as sole permeant cation, 135 mM gradient; for activation of currents at positive transepithelial voltages: basolaterally directed K+ gradient; for effect on K+ transport (Isc and G): forskolin 10 μM, 135 mM K+ gradient; for duration of agonist-induced changes in Isc: permeabilized T84 monolayers.

Assay [2] deals with apical membrane Cl- channels. The assay can be described thus: Cl- conductance of the apical plasma membrane in basolaterally permeabilized T84 monolayers. Format: cell-based, human.
For a further assay, the system named is basolateral K+ channel. The assay can be described thus: 86Rb efflux from T84 monolayers (K+ channel activity). Format: cell-based, human.
The subject of another assay is rabbit colonic mucosa. The assay can be described thus: Ussing chamber studies using rabbit colonic mucosa. Set-up: species or system rabbit (New Zealand).
The test system of assay [3] is apical membrane Cl- channels. The assay can be described thus: 125I efflux from T84 monolayers (apical Cl- channel activity).
Assay [4] has as its system intestinal fluid secretion induced by cholera toxin. The arrangement: species or system mouse (Balb/C). To be noted: mouse, in vivo.
The target of assay [5] is T1, basolateral NaK2Cl cotransporters (Homo sapiens, UniProt P55011).
T1 sequence (P55011 1-1212): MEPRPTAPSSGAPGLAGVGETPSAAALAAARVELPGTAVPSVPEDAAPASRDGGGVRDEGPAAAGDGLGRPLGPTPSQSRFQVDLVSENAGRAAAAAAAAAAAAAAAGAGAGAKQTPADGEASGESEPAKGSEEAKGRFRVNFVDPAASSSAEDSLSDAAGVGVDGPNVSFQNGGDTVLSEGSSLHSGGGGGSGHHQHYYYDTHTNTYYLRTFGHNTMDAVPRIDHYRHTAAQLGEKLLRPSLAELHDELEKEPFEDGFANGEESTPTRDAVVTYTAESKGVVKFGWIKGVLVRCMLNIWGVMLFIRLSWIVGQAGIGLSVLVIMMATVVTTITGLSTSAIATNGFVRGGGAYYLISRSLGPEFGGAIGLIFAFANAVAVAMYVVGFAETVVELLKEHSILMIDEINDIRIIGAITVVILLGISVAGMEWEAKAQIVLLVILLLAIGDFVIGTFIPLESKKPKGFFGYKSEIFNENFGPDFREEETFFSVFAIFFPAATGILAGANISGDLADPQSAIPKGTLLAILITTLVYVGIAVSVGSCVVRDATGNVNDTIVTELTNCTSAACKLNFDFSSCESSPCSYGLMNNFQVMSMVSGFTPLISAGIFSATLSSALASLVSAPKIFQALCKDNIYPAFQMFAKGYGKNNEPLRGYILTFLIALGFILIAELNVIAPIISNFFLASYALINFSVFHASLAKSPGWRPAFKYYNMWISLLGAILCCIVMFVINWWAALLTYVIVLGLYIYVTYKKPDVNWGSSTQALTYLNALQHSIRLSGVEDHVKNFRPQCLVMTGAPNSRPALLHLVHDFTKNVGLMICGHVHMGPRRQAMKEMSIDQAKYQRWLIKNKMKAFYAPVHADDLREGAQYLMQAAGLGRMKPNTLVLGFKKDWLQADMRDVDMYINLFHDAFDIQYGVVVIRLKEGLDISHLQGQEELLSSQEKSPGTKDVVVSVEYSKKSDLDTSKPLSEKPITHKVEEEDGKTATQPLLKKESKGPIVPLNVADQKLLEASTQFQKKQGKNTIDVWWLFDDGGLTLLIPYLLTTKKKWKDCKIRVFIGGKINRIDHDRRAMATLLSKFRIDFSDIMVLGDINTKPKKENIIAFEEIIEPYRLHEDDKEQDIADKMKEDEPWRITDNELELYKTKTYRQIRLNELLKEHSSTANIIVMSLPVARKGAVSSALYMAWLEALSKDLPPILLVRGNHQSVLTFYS
The assay can be described thus: 86Rb uptake in T84 monolayers (bumetanide-sensitive NaK2Cl cotransport). Format: cell-based. The procedure:
A group of control and CLT treated (33 μM, for 30 min) monolayers were treated with bumetanide (10 μM for 12 min).

The test system of the next assay is T84 cells. The assay can be described thus: Electrogenic Cl- secretion (short circuit current) in intact T84 monolayers. Format: cell-based, human. The arrangement: inhibition of Cl- secretory response to carbachol (Isc): dose or concentration left out as unconfirmed. The note with it: for inhibition of chloride secretion: T84 cells.
For assay [6], the system named is basolateral K+ channels.
[7] abbreviates: T84 cells, vs cells not treated with clotrimazole.
Where [8] appears, read: clotrimazole 33 μM, final 30 min of 90 min preincubation.
[9] abbreviates: carbachol (so in the source) stimulated, […].

Where two headings read alike, the source gives them in different places.

As usually defined, the IC50 is the midpoint of a concentration-inhibition curve. In the case of `Clc1ccccc1C(c1ccccc1)(c1ccccc1)n1ccnc1` [clotrimazole], in the assay with basolateral K+ channels [1], the “inhibition of time course of K+ transport after carbachol” value is given as “significantly inhibited” and the “inhibition of time course of K+ transport after forskolin” value was “significantly inhibited”. In [2] (symmetrical Cl- 142 mM), the “effect on forskolin-stimulated Cl- conductances” value was “no detectable effect” and the “effect on thapsigargin-stimulated Cl- conductances” value is listed as “no detectable effect”. In the assay with basolateral K+ channel (setting [7]), the “inhibition of Ca++ stimulated 86Rb efflux” value was “significantly inhibited” and the “inhibition of baseline 86Rb efflux” value is “significantly inhibited”. Further, the “reduction of rate constant for VIP-stimulated 86Rb efflux” value with basolateral K+ channel (VIP 5 μM, clotrimazole 33 μM) is given as 87%. Also, the “86Rb loading of the cells” value with basolateral K+ channel (setting [8]) is on record as “did not alter”. The “rate constant for VIP-stimulated 86Rb efflux” value in the assay on basolateral K+ channel (clotrimazole-treated (vs 0.0465 untreated), n=2 in triplicate) is recorded as 0.0062 % uptake/minute. In addition, the “rate constant for thapsigargin-stimulated 86Rb efflux” value in the assay on basolateral K+ channel (clotrimazole-treated (vs 0.048 untreated), n=2) was found to be 0.011 % uptake/minute. For the same compound, the “inhibition of 86Rb efflux stimulated with thapsigargin” value in the assay with basolateral K+ channel (compared with VIP-stimulated efflux) was “inhibited to a similar degree”. Further, in the assay with rabbit colonic mucosa (clotrimazole 30 μM, forskolin 10 μM), the “inhibition of time course of forskolin induced Isc” value was “inhibited strongly”. The “rate constant for 125I efflux” value in assay [3] (VIP-stimulated, clotrimazole-treated monolayers, n=2 in duplicate) turned out to be 0.0637 % uptake/minute. Also, the “125I loading of the cells” value in assay [3] (setting [8]) was “did not alter”. For the same compound, the “effect on time course of 125I efflux, VIP” value in [3] (monolayers treated with VIP) is recorded as “little or no effect”. Also, in assay [4], the “effect on intestinal secretion in the absence of cholera toxin” value is reported as “no effect” and the “reduction of intestinal fluid secretion induced by cholera toxin” value was found to be 86%. Besides, in assay [5] (0.5 h, read-out: reduction of total amount of 86Rb uptake), the inhibition at 33 µM stood at 53.6 ± 5.8%. In addition, the “effect on fractional component of 86Rb uptake that was bumetanide-sensitive” value in assay [5] (clotrimazole 33 μM, bumetanide 10 μM) is listed as “no effect”. In the assay with T84 cells, the “apparent potency of inhibition, basolateral vs apical application” value is reported as “greater when applied basolaterally than apically”; the “inhibition by basolateral application alone compared with both sides” value is listed as “almost as effective as incubation on both sides”; the “inhibition of Cl- secretory response to VIP (Isc)” value (“inhibition … to VIP (Isc)” for short) was “inhibited”; the “inhibition of Cl- secretory response to carbachol (Isc)” value (from here on “inhibition … to carbachol (Isc)”) is reported as “inhibited”. Besides, in the assay with T84 cells, the “inhibition of Cl- secretory response to carbachol after pretreatment” value is recorded as “inhibited strongly”; the “inhibition of Cl- secretory response to ionomycin after pretreatment” value is reported as “inhibited strongly”; the “inhibition of Cl- secretory response to thapsigargin after pretreatment” value was “inhibited strongly”; the “inhibition of cAMP and Ca++ elicited Cl- secretion” value is reported as “most potent inhibitor tested”. In the assay with T84 cells, the “inhibition of secretory response to 8Br-cAMP after pretreatment” value was “inhibited”, the “inhibition of secretory response to VIP after pretreatment” value was “inhibited”, the “inhibition of secretory response to forskolin after pretreatment” value is on record as “inhibited” and the “inhibition of synergistic response to VIP plus carbachol” value is listed as “found to parallel the inhibition of secretion promoted by Ca^++ agonists alone”. In the assay with T84 cells, the “reversibility of inhibition of Cl- secretion” value is on record as 96±2%. Further, the IC50 in the assay with T84 cells (Homo sapiens, T84, read-out: IC50, inhibition of secretory response to E. Coli heat-stabile toxin) stood at 15 µM. Also, the “potentiation of Cl- secretory responses to either agonist” value with T84 cells (low doses (10^-7 or less)) is 5-10%.

Regarding `CC(=O)N1CCN(c2ccc(OCC3COC(Cn4ccnc4)(c4ccc(Cl)cc4Cl)O3)cc2)CC1` (stereo not shown) [ketoconazole], the “inhibition of chloride secretion” value in the assay on T84 cells is given as “effective at inhibiting chloride secretion”.

Regarding `Clc1ccc(COC(Cn2ccnc2)c2ccc(Cl)cc2Cl)c(Cl)c1` (stereo not shown) [miconazole], the “inhibition of chloride secretion” value in the assay on T84 cells is “effective at inhibiting chloride secretion”.

Turning to `C=C[C@@]1(C)CC(=O)[C@]2(O)[C@@]3(C)[C@@H](O)CCC(C)(C)[C@@H]3[C@H](O)[C@H](OC(C)=O)[C@@]2(C)O1` [forskolin], in the assay on basolateral K+ channels [1], the “increases in Isc and G in absence of K+” value is “not detectable”; the “activation of currents at positive transepithelial voltages” value is given as “activate macroscopic outwardly rectified (mucosal to serosal) currents”; the “effect on K+ transport (Isc and G)” value was “brisk increase in K+ transport”; the “duration of agonist-induced changes in Isc” value was “sustained”. The “effect on Cl- conductance over baseline” value in assay [2] (forskolin 10 μM basolateral, no clotrimazole) was “increased Cl- conductances significantly over baseline”. The “reversal potential (I/V relations)” value in the assay with basolateral K+ channels [6] is recorded as -40 mV.

Regarding charybdotoxin, the “effect on K+ transport induced by subsequent forskolin” value in the assay on basolateral K+ channels [1] (charybdotoxin 100 nM) was “no detectable effect”. Besides, in the assay on basolateral K+ channels [1] (charybdotoxin 100 nM pretreatment), the “inhibition of carbachol-induced Ca++ IK” value was found to be 50%. In addition, the “inhibition … to VIP (Isc)” value with T84 cells is listed as “minimal affects”. Moreover, the “inhibition … to carbachol (Isc)” value with T84 cells (setting [9]) was “strongly inhibited”.

For the compound `OC(c1ccccc1)(c1ccccc1)c1ccccc1Cl` [2-chlorophenyl-bis-phenyl methanol], in the assay on basolateral K+ channels [1] (carbachol 100 μM (Ca++ agonist)), the “inhibition of time course of K+ transport after carbachol” value is on record as “Nearly identical results”. Further, the “inhibition of time course of K+ transport after forskolin” value in the assay on basolateral K+ channels [1] (forskolin 10 μM (cAMP agonist)) was “Nearly identical results”. Moreover, the “inhibition of chloride secretion” value in the assay with T84 cells is given as “effective at inhibiting chloride secretion”.

Consider `C[C@@H]1[C@H](O)[C@@H](C)/C=C/C=C/C=C/C=C/C=C/C=C/C=C/[C@H](O[C@@H]2O[C@H](C)[C@@H](O)[C@H](N)[C@@H]2O)C[C@@H]2O[C@](O)(C[C@@H](O)C[C@@H](O)[C@H](O)CC[C@@H](O)C[C@@H](O)CC(=O)O[C@H]1C)C[C@H](O)[C@H]2C(=O)O` [amphotericin B], for which the “increase in conductance on initial permeabilization” value with basolateral K+ channels [1] (amphotericin B, apical) was determined as 49±19%.

Regarding `C/C=C(/C)C(=O)O[C@H]1C(C)=C2[C@H]([C@@H]1OC(=O)CCCCCCC)[C@@](C)(OC(C)=O)C[C@H](OC(=O)CCC)[C@@]1(O)[C@H]2OC(=O)[C@@]1(C)O` [thapsigargin], the “activation of currents at positive transepithelial voltages” value in the assay with basolateral K+ channels [1] is reported as “activate macroscopic outwardly rectified (mucosal to serosal) currents”. For the same compound, the “reversal potential (I/V relations)” value with basolateral K+ channels [6] is given as -40 mV.

Take `[Ba+2].[Cl-].[Cl-]` [BaCl2]: the “effect on K+ transport induced by carbachol” value in the assay on basolateral K+ channels [1] (carbachol 100 μM after forskolin, BaCl2 3 mM) is listed as “no detectable effect”. In the assay with basolateral K+ channels [1] (forskolin 10 μM elicited, BaCl2 3 mM basolateral), the “inhibition of cAMP-sensitive IK” value was “greater than 70%”. Further, the “inhibition … to VIP (Isc)” value in the assay on T84 cells is given as “strongly inhibited”. Further, in the assay with T84 cells (setting [9]), the “inhibition … to carbachol (Isc)” value was “no apparent affect”.

As to `Clc1ccc(COC(Cn2ccnc2)c2ccc(Cl)cc2Cl)cc1` (stereo not shown) [econazole], the “inhibition of chloride secretion” value in the assay on T84 cells is listed as “effective at inhibiting chloride secretion”.

With `C[N+](C)(C)CCOC(N)=O` [carbachol], in the assay on basolateral K+ channels [1], the “increases in Isc and G in absence of K+” value is “not detectable”; the “effect on K+ transport (Isc and G)” value is given as “increased K+ currents”; the “duration of agonist-induced changes in Isc” value is “short-lived”. Also, the “time to return of IscK and GK to baseline” value with basolateral K+ channels [1] (after addition of carbachol) is reported as at most 5 min. In addition, the “carbachol-induced IscK, carbachol added after forskolin” value in the assay on basolateral K+ channels [1] (after forskolin) is listed as 180.7±15.7 μA/cm^2. Also, in the assay on basolateral K+ channels [1] (carbachol alone), the “carbachol-induced IscK, carbachol added alone” value was 111.7±7.4 μA/cm^2. For the same compound, the “effect on Isc after forskolin” value in the assay on rabbit colonic mucosa (carbachol 100 μM added after forskolin) is recorded as “no firther effect”.
